According to ChEMBL document CHEMBL1201862, “PubChem BioAssay data set” (2004):
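Cells were grown in 96-well plates and exposed to each compound for 48 hours at five concentrations; endpoints were interpolated linearly between bracketing concentrations, or set to the highest concentration if not reached. The concentration for 50% growth inhibition is given as GI50.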 Calls of active or inactive are those of the source. Rule as the data show it: active = GI50 up to about 1.1 µM and inactive = higher.

Legend:
Assay in all cases: DTP human tumour cell line panel, 48 h
786-0 = tested on: 786-0
A498 = tested on: A498
A549 = tested on: A549
ACHN = tested on: ACHN
BT-549 = tested on: BT-549
CAKI-1 = tested on: CAKI-1
CCRF-CEM = tested on: CCRF-CEM
COLO 205 = tested on: COLO 205
EKVX = tested on: EKVX
HCC 2998 = tested on: HCC 2998
HCT-116 = tested on: HCT-116
HCT-15 = tested on: HCT-15
HOP-62 = tested on: HOP-62
HOP-92 = tested on: HOP-92
HT-29 = tested on: HT-29
Hs-578T = tested on: Hs-578T
IGROV-1 = tested on: IGROV-1
K562 = tested on: K562
KM12 = tested on: KM12
LOX IMVI = tested on: LOX IMVI
M14 = tested on: M14
MCF7 = tested on: MCF7
MDA-MB-231 = tested on: MDA-MB-231
MDA-MB-435 = tested on: MDA-MB-435
MDA-N = tested on: MDA-N
MOLT-4 = tested on: MOLT-4
Malme-3M = tested on: Malme-3M
NCI-H226 = tested on: NCI-H226
NCI-H23 = tested on: NCI-H23
NCI-H460 = tested on: NCI-H460
NCI-H522 = tested on: NCI-H522
NCI/ADR-RES = tested on: NCI/ADR-RES
OVCAR-3 = tested on: OVCAR-3
OVCAR-4 = tested on: OVCAR-4
OVCAR-5 = tested on: OVCAR-5
OVCAR-8 = tested on: OVCAR-8
PC-3 = tested on: PC-3
RPMI-8226 = tested on: RPMI-8226
RXF 393 = tested on: RXF 393
SF-268 = tested on: SF-268
SF-295 = tested on: SF-295
SF-539 = tested on: SF-539
SK-MEL-2 = tested on: SK-MEL-2
SK-MEL-5 = tested on: SK-MEL-5
SK-OV-3 = tested on: SK-OV-3
SN12C = tested on: SN12C
SNB-19 = tested on: SNB-19
SR = tested on: SR
SW-620 = tested on: SW-620
T47D = tested on: T47D
TK-10 = tested on: TK-10
U-251 = tested on: U-251
UACC-257 = tested on: UACC-257
UACC-62 = tested on: UACC-62
UO-31 = tested on: UO-31
DU-145 = tested on: DU-145
HL-60 = tested on: HL-60
SK-MEL-28 = tested on: SK-MEL-28
SNB-75 = tested on: SNB-75

## O=c1[nH]c2ccc(Cl)cc2c2oc(-c3ccccc3)nc12
786-0
  GI50: 16 µM (inactive)
A498
  GI50: 21.3 µM (inactive)
A549
  GI50: 22.1 µM (inactive)
ACHN
  GI50: 24.5 µM (inactive)
BT-549
  GI50: > 100 µM (inactive)
CAKI-1
  GI50: 21.6 µM (inactive)
CCRF-CEM
  GI50: 45.5 µM (inactive)
COLO 205
  GI50: 65.8 µM (inactive)
EKVX
  GI50: 30.5 µM (inactive)
HCC 2998
  GI50: 26.3 µM (inactive)
HCT-116
  GI50: 16.4 µM (inactive)
HCT-15
  GI50: 51.6 µM
HOP-62
  GI50: 20.7 µM (inactive)
HOP-92
  GI50: 28.4 µM (inactive)
HT-29
  GI50: 83.9 µM (inactive)
Hs-578T
  GI50: 15.7 µM (inactive)
IGROV-1
  GI50: 29.1 µM (inactive)
K562
  GI50: 72.6 µM (inactive)
KM12
  GI50: 40.8 µM (inactive)
LOX IMVI
  GI50: 32.5 µM (inactive)
M14
  GI50: 88.5 µM (inactive)
MCF7
  GI50: 6.07 µM (inactive)
MDA-MB-231
  GI50: 19.3 µM (inactive)
MDA-MB-435
  GI50: 51.6 µM (inactive)
MDA-N
  GI50: 45.7 µM (inactive)
MOLT-4
  GI50: 76.2 µM (inactive)
Malme-3M
  GI50: 29.3 µM (inactive)
NCI-H226
  GI50: 21.2 µM (inactive)
NCI-H23
  GI50: 25.2 µM (inactive)
NCI-H460
  GI50: 20 µM (inactive)
NCI-H522
  GI50: 16.9 µM (inactive)
NCI/ADR-RES
  GI50: 29.5 µM (inactive)
OVCAR-3
  GI50: 21.2 µM (inactive)
OVCAR-4
  GI50: 18.1 µM (inactive)
OVCAR-5
  GI50: 52.1 µM (inactive)
OVCAR-8
  GI50: 5.62 µM (inactive)
PC-3
  GI50: 29.9 µM (inactive)
RPMI-8226
  GI50: 26 µM (inactive)
RXF 393
  GI50: 14.1 µM (inactive)
SF-268
  GI50: 36 µM (inactive)
SF-295
  GI50: 21.6 µM (inactive)
SF-539
  GI50: 29.3 µM (inactive)
SK-MEL-2
  GI50: 17.8 µM (inactive)
SK-MEL-5
  GI50: 25.9 µM (inactive)
SK-OV-3
  GI50: 24.2 µM (inactive)
SN12C
  GI50: 21.7 µM (inactive)
SNB-19
  GI50: 19.8 µM (inactive)
SR
  GI50: 21 µM (inactive)
SW-620
  GI50: 44.6 µM (inactive)
T47D
  GI50: 19.2 µM (inactive)
TK-10
  GI50: 35.5 µM (inactive)
U-251
  GI50: 20.7 µM (inactive)
UACC-257
  GI50: 52.7 µM (inactive)
UACC-62
  GI50: 70.5 µM (inactive)
UO-31
  GI50: 22.1 µM (inactive)

## C=C1[C@@H]2CCC3[C@]4(C)C(CC[C@@]5(C)C(=O)O[C@H](O)[C@@H]45)[C@H](O)[C@]3(C2)[C@H]1OC1OC(CO)C(O)C(O)C1O (stereo not given in full)
786-0
  GI50: > 50 µM (inactive)
A498
  GI50: > 50 µM (inactive)
A549
  GI50: > 50 µM (inactive)
ACHN
  GI50: > 50 µM (inactive)
BT-549
  GI50: > 50 µM (inactive)
COLO 205
  GI50: > 50 µM (inactive)
DU-145
  GI50: > 50 µM (inactive)
EKVX
  GI50: > 50 µM (inactive)
HCT-116
  GI50: > 50 µM (inactive)
HCT-15
  GI50: > 50 µM
HL-60
  GI50: > 50 µM (inactive)
HOP-62
  GI50: > 50 µM (inactive)
HT-29
  GI50: > 50 µM (inactive)
Hs-578T
  GI50: > 50 µM (inactive)
IGROV-1
  GI50: > 50 µM (inactive)
K562
  GI50: 14.1 µM (inactive)
KM12
  GI50: > 50 µM (inactive)
LOX IMVI
  GI50: > 50 µM (inactive)
M14
  GI50: > 50 µM (inactive)
MCF7
  GI50: > 50 µM (inactive)
MDA-MB-231
  GI50: > 50 µM (inactive)
MDA-N
  GI50: > 50 µM (inactive)
MOLT-4
  GI50: 17.4 µM (inactive)
Malme-3M
  GI50: > 50 µM (inactive)
NCI-H226
  GI50: > 50 µM (inactive)
NCI-H23
  GI50: > 50 µM (inactive)
NCI-H460
  GI50: > 50 µM (inactive)
NCI/ADR-RES
  GI50: > 50 µM (inactive)
OVCAR-3
  GI50: > 50 µM (inactive)
OVCAR-4
  GI50: > 50 µM (inactive)
OVCAR-5
  GI50: > 50 µM (inactive)
OVCAR-8
  GI50: > 50 µM (inactive)
PC-3
  GI50: > 50 µM (inactive)
RPMI-8226
  GI50: 8.81 µM (inactive)
RXF 393
  GI50: > 50 µM (inactive)
SF-268
  GI50: > 50 µM (inactive)
SF-295
  GI50: > 50 µM (inactive)
SF-539
  GI50: > 50 µM (inactive)
SK-MEL-28
  GI50: > 50 µM (inactive)
SK-MEL-2
  GI50: > 50 µM (inactive)
SK-MEL-5
  GI50: > 50 µM (inactive)
SK-OV-3
  GI50: > 50 µM (inactive)
SN12C
  GI50: > 50 µM (inactive)
SNB-19
  GI50: > 50 µM (inactive)
SNB-75
  GI50: > 50 µM (inactive)
SW-620
  GI50: > 50 µM (inactive)
T47D
  GI50: > 50 µM (inactive)
TK-10
  GI50: > 50 µM (inactive)
U-251
  GI50: > 50 µM (inactive)
UACC-257
  GI50: > 50 µM (inactive)
UACC-62
  GI50: > 50 µM (inactive)
UO-31
  GI50: > 50 µM (inactive)

## CC(=O)c1sc2c(c1O)c(=O)n(-c1ccccc1)c(=S)n2-c1ccccc1
786-0
  GI50: > 100 µM (inactive)
A549
  GI50: > 100 µM (inactive)
BT-549
  GI50: 95.3 µM (inactive)
CCRF-CEM
  GI50: > 10 µM (inactive)
COLO 205
  GI50: > 100 µM (inactive)
DU-145
  GI50: > 100 µM (inactive)
HCC 2998
  GI50: > 100 µM (inactive)
HCT-15
  GI50: > 100 µM
HL-60
  GI50: > 100 µM (inactive)
HOP-92
  GI50: > 100 µM (inactive)
HT-29
  GI50: > 100 µM (inactive)
Hs-578T
  GI50: > 100 µM (inactive)
IGROV-1
  GI50: > 100 µM (inactive)
K562
  GI50: > 100 µM (inactive)
KM12
  GI50: > 100 µM (inactive)
LOX IMVI
  GI50: > 100 µM (inactive)
M14
  GI50: > 100 µM (inactive)
MCF7
  GI50: > 100 µM (inactive)
MDA-MB-231
  GI50: > 100 µM (inactive)
MDA-MB-435
  GI50: > 100 µM (inactive)
MDA-N
  GI50: > 100 µM (inactive)
MOLT-4
  GI50: > 100 µM (inactive)
Malme-3M
  GI50: > 100 µM (inactive)
NCI-H226
  GI50: > 100 µM (inactive)
NCI-H23
  GI50: > 100 µM (inactive)
NCI-H460
  GI50: > 100 µM (inactive)
NCI-H522
  GI50: > 100 µM (inactive)
OVCAR-3
  GI50: > 100 µM (inactive)
OVCAR-4
  GI50: > 100 µM (inactive)
OVCAR-5
  GI50: > 100 µM (inactive)
OVCAR-8
  GI50: > 100 µM (inactive)
RPMI-8226
  GI50: > 100 µM (inactive)
RXF 393
  GI50: > 100 µM (inactive)
SF-268
  GI50: > 100 µM (inactive)
SF-295
  GI50: > 100 µM (inactive)
SK-MEL-28
  GI50: > 100 µM (inactive)
SK-MEL-2
  GI50: > 100 µM (inactive)
SK-MEL-5
  GI50: > 100 µM (inactive)
SN12C
  GI50: > 100 µM (inactive)
SNB-19
  GI50: > 100 µM (inactive)
SNB-75
  GI50: 58.7 µM (inactive)
SW-620
  GI50: > 100 µM (inactive)
T47D
  GI50: > 100 µM (inactive)
TK-10
  GI50: > 100 µM (inactive)
U-251
  GI50: > 100 µM (inactive)
UACC-257
  GI50: > 100 µM (inactive)
UACC-62
  GI50: > 100 µM (inactive)
UO-31
  GI50: > 100 µM (inactive)
